Assay [1] deals with T1, Escherichia coli LpxC enzyme (Escherichia coli, UniProt P0A725).
T1 construct: made in house; host or cells: Escherichia coli
T1 sequence (P0A725 1-305): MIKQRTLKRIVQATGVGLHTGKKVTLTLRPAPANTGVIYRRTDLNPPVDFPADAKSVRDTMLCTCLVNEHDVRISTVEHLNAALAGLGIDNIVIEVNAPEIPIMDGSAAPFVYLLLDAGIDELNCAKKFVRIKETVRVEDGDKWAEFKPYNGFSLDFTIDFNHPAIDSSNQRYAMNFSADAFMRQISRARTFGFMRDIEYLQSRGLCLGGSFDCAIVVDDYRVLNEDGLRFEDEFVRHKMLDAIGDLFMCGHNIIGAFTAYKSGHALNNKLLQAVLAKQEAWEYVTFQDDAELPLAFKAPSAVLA
In words: Inhibitory activity on Escherichia coli LpxC enzyme (fluorescamine method). Type of assay: biochemical. To be noted: fluorescamine detection; 3.1 nmol/L enzyme, 20 μmol/L substrate, pH 6.5, 120 min; read-out: IC50 (inhibitory activity on Escherichia coli LpxC enzyme, Fluoresamine method). As for the experimental part: To assay the activity of Escherichia coli LpxC enzyme, LpxC was reacted with its substrate, UDP-3-O-(R-3-hydroxymyristoyl)-N-acetylglucosamine, and the amount of the reaction product was quantified by the amino groups present in the product
The reaction was terminated by the addition of 1.0 mg/mL-fluorescamine dissolved in a solvent obtained by mixing an equal amount of acetonitrile and dimethylformamide with the reaction mixture, and then, a 0.2 mol/L-sodium phosphate buffer solution (pH 8.0) was added thereto, and the amount of the reaction product was detected at an excitation wavelength/fluorescence wavelength=390 nm/495 nm. An inhibition curve was obtained by performing the aforementioned reaction in the presence of various concentrations of test compounds.

The test system of assay [2] is Pseudomonas aeruginosa strain ATCC27853. As to the kind of experiment: Antimicrobial activity, MIC by broth microdilution. Type of assay: cell-based. To be noted: ATCC27853, 18 h, cation-adjusted Mueller-Hinton broth, about 5×10^5 CFU/mL, 35° C., about 18 hours, read-out: MIC Pseudomonas aeruginosa ATCC27853. An excerpt:
(§1) Test Example 4 Evaluation of the Antimicrobial Activity
(§2) For minimum inhibitory concentration (MIC) measurement, the following broth microdilution method was applied as adapted from the standard procedure recommended by the CLSI (Clinical and Laboratory Standards Institute).
(§3) The bacteria used were Pseudomonas aeruginosa strain ATCC27853, Escherichia coli strain ATCC25922, and Klebsiella pneumoniae strain ATCC13883. After culture overnight on a heart infusion agar medium, the cells of a test bacterium were scraped off, and a bacterial solution suspended to have a turbidity of level 0.5 on the McFarland scale was diluted and used as an inoculum solution. The inoculum solution was inoculated in a cation-adjusted Mueller-Hinton broth medium containing a test compound so that the final inoculation concentration was about 5×10^5 CFU/mL, and cultured at 35° C. for about 18 hours. A minimum drug concentration at which no cell growth was visible to the naked eye was designated as MIC. […] In the table, ND represents the case where suppression of the cell growth in a drug concentration-dependent manner was not observed (Not Determined), and NT represents that no test was conducted (Not Tested).
(Dilution methods test growth across graded concentrations, often in twofold steps.)

Assay [3] has as its system Escherichia coli strain ATCC25922. In words: Antimicrobial activity, MIC by broth microdilution. To be noted: ATCC25922, 18 h, cation-adjusted Mueller-Hinton broth, about 5×10^5 CFU/mL, 35° C., about 18 hours, read-out: MIC Escherichia coli ATCC25922. Type of assay: cell-based.
Text: as §1, §2, §3

Assay [4] deals with Klebsiella pneumoniae strain ATCC13883. As to the kind of experiment: Antimicrobial activity, MIC by broth microdilution. Type of assay: cell-based. To be noted: ATCC13883, cation-adjusted Mueller-Hinton broth, about 5×10^5 CFU/mL, 35° C., about 18 hours, read-out: MIC Klebsiella pneumoniae ATCC13883.
Text: as §1, §2, §3

IC50 and MIC data for 18 compounds are collected here from patent US20220002279A1, “NOVEL IMIDAZOLE DERIVATIVE” (priority 2018, published 2022).

≈ marks a conversion by molar mass, not a printed value.

By IC50 is commonly meant the concentration at which inhibition is half-maximal. Consider `C[C@H](O)c1nccn1Cc1cc(-c2ccc(C#C[C@@H]3[C@H]4CN(CC(=O)O)C[C@@H]34)cc2)on1` [Compound 110, [(1R,5S,6s)-6-({4-[3-((2-[(1S)-1-hydroxyethyl]-1H-imidazol-1-yl}methyl)-1,2-oxazol-5-yl]phenyl}ethynyl)-3-azabicyclo[3.1.0]hexan-3-yl]acetic acid], for which the half-maximal inhibitory concentration (IC50) in assay [1] is 219 nM.
Usually MIC stands for the least concentration at which growth counts as inhibited. Regarding `C[C@H](O)c1nccn1Cc1cc(-c2ccc(C#C[C@H]3C[C@H](NC4COC4)C3)cc2)on1` [Compound 135, (S)-1-(1-((5-(4-(((1r,3S)-3-(oxetan-3-ylamino)cyclobutyl)ethynyl)phenyl)isoxazol-3-yl)methyl)-1H-imidazol-2-yl)ethanol], the values for the MIC in assay [2], in assay [3] and in assay [4] were 32 µg/mL (≈ 76.5 µM), 0.5 µg/mL (≈ 1.19 µM) and 2 µg/mL (≈ 4.78 µM), respectively.
With `C[C@H](O)c1nccn1[C@H](CN)c1cc(-c2ccc(C#C[C@H]3C[C@](O)(CO)C3)cc2)on1` [Compound 90, cis-3-[(4-{3-[(1R)-2-amino-1-{2-[(1S)-1-hydroxyethyl]-1H-imidazol-1-yl}ethyl]-1,2-oxazol-5-yl}phenyl)ethynyl]-1-(hydroxymethyl)cyclobutan-1-ol], the MIC in assay [2] is 4 µg/mL (≈ 9.47 µM); in assay [3], 4 µg/mL (≈ 9.47 µM); in assay [4], 8 µg/mL (≈ 18.9 µM).
Take `C[C@H](O)c1nccn1Cc1cc(-c2ccc(C#C[C@H]3C[C@@H](O)C3)cc2)on1` [Compound 88, cis-3-({4-[3-((2-[(1S)-1-Hydroxyethyl]-1H-imidazol-1-yl}methyl)-1,2-oxazol-5-yl]phenyl}ethynyl)cyclobutan-1-ol]: the minimal inhibitory concentration (MIC) in assay [2] is 16 µg/mL (≈ 44 µM); in assay [3], 0.12 µg/mL (≈ 0.33 µM); in assay [4], 0.25 µg/mL (≈ 0.688 µM).
Take `C[C@H](O)c1nccn1Cc1cc(-c2ccc(C#CCN)cc2)on1` [Compound 30, (1S)-1-[l-({5-[4-(3-aminoprop-1-yn-1-yl)phenyl]-1,2-oxazol-3-yl}methyl)-1H-imidazol-2-yl]ethan-1-ol]: the values for the minimal inhibitory concentration (MIC) in assay [2], in assay [3] and in assay [4] were 64 µg/mL (≈ 199 µM), 64 µg/mL (≈ 199 µM) and over 128 µg/mL, respectively.
In the case of `C[C@H](O)c1nccn1Cc1cc(-c2ccc(C#C[C@H]3C[C@H](N)C3)cc2)on1` [Compound 23, (1S)-1-{1-[(5-(4-[(trans-3-aminocyclobutyl)ethynyl]phenyl}-1,2-oxazol-3-yl)methyl]-1H-imidazol-2-yl}ethan-1-ol], the minimum inhibitory concentration (MIC) is 16 µg/mL (≈ 44.1 µM) in assay [2], 4 µg/mL (≈ 11 µM) in assay [3] and 8 µg/mL (≈ 22.1 µM) in assay [4].
The corresponding values for `C[C@H](O)c1nccn1[C@H](CN)c1cc(-c2ccc(C#CC3CC3)cc2)on1` [Compound 60, (1S)-1-{1-[(1R)-2-amino-1-(5-[4-(cyclopropylethynyl)phenyl]-1,2-oxazol-3-yl}ethyl]-1H-imidazol-2-yl}ethan-1-ol] are 8 µg/mL (≈ 22.1 µM), 0.25 µg/mL (≈ 0.69 µM) and 0.25 µg/mL (≈ 0.69 µM).
Taken in the same sequence, the figures for `C[C@H](O)c1nccn1[C@H](CN)c1cc(-c2ccc(C#CC3CC3(CO)CO)cc2)on1` (stereo partly drawn) [Compound 131, (1S)-1-(1-{(1R)-2-amino-1-[5-(4-{[2,2-bis(hydroxymethyl)cyclopropyl]ethynyl}phenyl)-1,2-oxazol-3-yl]ethyl}-1H-imidazol-2-yl)ethan-1-ol] were 16 µg/mL (≈ 37.9 µM), 8 µg/mL (≈ 18.9 µM) and 32 µg/mL (≈ 75.7 µM).
Taken in the same sequence, the figures for `C[C@H](O)c1nccn1[C@H](CN)c1cc(-c2ccc(C#C[C@@H]3[C@H]4CN(CCCO)C[C@@H]34)cc2)on1` [Compound 132, 3-{(1R,5S,6s)-6-[(4-{3-[(1R)-2-amino-1-{2-[(1S)-1-hydroxyethyl]-1H-imidazol-1-yl}ethyl]-1,2-oxazol-5-yl}phenyl)ethynyl]-3-azabicyclo[3.1.0]hexan-3-yl) propan-1-ol] were 2 µg/mL (≈ 4.33 µM), 8 µg/mL (≈ 17.3 µM) and 8 µg/mL (≈ 17.3 µM).
`C[C@H](O)c1nccn1[C@H](CN)c1cc(-c2ccc(C#C[C@H]3CC3C(=O)O)cc2)on1` (stereo partly drawn) [Compound 126, trans-2-[(4-{3-[(1R)-2-amino-1-{2-[(1S)-1-hydroxyethyl]-1H-imidazol-1-yl}ethyl]-1,2-oxazol-5-yl}phenyl)ethynyl]cyclopropane-1-carboxylate]: the minimal inhibitory concentration (MIC) is 16 µg/mL (≈ 39.4 µM) in assay [2], 16 µg/mL (≈ 39.4 µM) in assay [3] and 64 µg/mL (≈ 157 µM) in assay [4].
With `CC(O)CN1C[C@@H]2[C@@H](C#Cc3ccc(-c4cc([C@@H](CN)n5ccnc5[C@H](C)O)no4)cc3)[C@@H]2C1` (stereo partly drawn) [Compound 120, 1-{(1R,5S,6s)-6-[(4-{3-[(1R)-2-amino-1-{2-[(1S)-1-hydroxyethyl]-1H-imidazol-1-yl}ethyl]-1,2-oxazol-5-yl}phenyl)ethynyl]-3-azabicyclo[3.1.0]hexan-3-yl}propan-2-ol], the MIC was 2 µg/mL (≈ 4.33 µM) in assay [2], 1 µg/mL (≈ 2.17 µM) in assay [3] and 2 µg/mL (≈ 4.33 µM) in assay [4].
With `C[C@H](O)c1nccn1[C@H](CN)c1cc(-c2ccc(C#C[C@H]3C[C@@H](O)C3)cc2)on1` [Compound 125, cis-3-[(4-{3-[(1R)-2-amino-1-{2-[(1S)-1-hydroxyethyl]-1H-imidazol-1-yl}ethyl]-1,2-oxazol-5-yl}phenyl)ethynyl]cyclobutan-1-ol], the values for the minimum inhibitory concentration (MIC) in assay [2], in assay [3] and in assay [4] were 8 µg/mL (≈ 20.4 µM), 2 µg/mL (≈ 5.1 µM) and 2 µg/mL (≈ 5.1 µM), respectively.
As for `COCCN1C[C@@H]2[C@@H](C#Cc3ccc(-c4cc([C@@H](CN)n5ccnc5[C@H](C)O)no4)cc3)[C@@H]2C1` [Compound 101, (1S)-1-(1-{(1R)-2-Amino-1-[5-(4-{[(1R,5S,6s)-3-(2-methoxyethyl)-3-azabicyclo[3.1.0]hexan-6-yl]ethynyl}phenyl)-1,2-oxazol-3-yl]ethyl}-1H-imidazol-2-yl)ethan-1-ol], the minimal inhibitory concentration (MIC) in assay [2] worked out at 2 µg/mL (≈ 4.33 µM); in assay [3], 0.5 µg/mL (≈ 1.08 µM); in assay [4], 1 µg/mL (≈ 2.17 µM).
As for `CC(=O)N[C@H]1C[C@H](C#Cc2ccc(-c3cc([C@@H](CN)n4ccnc4[C@H](C)O)no3)cc2)C1` [Compound 115, N-{trans-3-[(4-{3-[(1R)-2-amino-1-{2-[(1S)-1-hydroxyethyl]-1H-imidazol-1-yl}ethyl]-1,2-oxazol-5-yl}phenyl)ethynyl]cyclobutyl} acetamide], the MIC in assay [2] is 16 µg/mL (≈ 36.9 µM); in assay [3] it was 4 µg/mL (≈ 9.23 µM); in assay [4], 8 µg/mL (≈ 18.5 µM).
Consider `C[C@H](O)c1nccn1[C@H](CN)c1cc(-c2ccc(C#C[C@@H]3[C@H]4CN(CCCC(=O)O)C[C@@H]34)cc2)on1` [Compound 113, 4-{(1R,5S,6s)-6-[(4-{3-[(1R)-2-amino-1-{2-[(1S)-1-hydroxyethyl]-1H-imidazol-1-yl}ethyl]-1,2-oxazol-5-yl}phenyl)ethynyl]-3-azabicyclo[3.1.0]hexan-3-yl}butanoic acid], for which the minimum inhibitory concentration (MIC) in assay [2] turned out to be 4 µg/mL (≈ 8.17 µM); in assay [3] it was 4 µg/mL (≈ 8.17 µM); in assay [4], 16 µg/mL (≈ 32.7 µM).
Consider `C[C@H](O)c1nccn1[C@H](CN)c1cc(-c2ccc(C#CC3CCOC3)cc2)on1` (stereo partly drawn) [Compound 75, (1S)-1-{1-[(1R)-2-amino-1-(5-{4-[(oxolan-3-yl)ethynyl]phenyl}-1,2-oxazol-3-yl)ethyl]-1H-imidazol-2-yl} ethan-1-ol], for which the MIC in assay [2] came out at 64 µg/mL (≈ 163 µM); in assay [3], 0.25 µg/mL (≈ 0.637 µM); in assay [4] it was 2 µg/mL (≈ 5.1 µM).
The corresponding values for `C[C@H](O)c1nccn1Cc1cc(-c2ccc(C#C[C@@H]3[C@H]4CN(CCCC(=O)O)C[C@@H]34)cc2)on1` [Compound 67, 4-[(1R,5S,6s)-6-({4-[3-({2-[(1S)-1-Hydroxyethyl]-1H-imidazol-1-yl}methyl)-1,2-oxazol-5-yl]phenyl}ethynyl)-3-azabicyclo[3.1.0]hexan-3-yl]butanoic acid] are 8 µg/mL (≈ 17.4 µM), 2 µg/mL (≈ 4.34 µM) and 4 µg/mL (≈ 8.69 µM).
The corresponding values for `C[C@H](O)c1nccn1[C@H](CN)c1cc(-c2ccc(C#C[C@H]3C[C@H](N(C)C=O)C3)cc2)on1` [Compound 123, N-{trans-3-[(4-{3-[(1R)-2-amino-1-{2-[(1S)-1-hydroxyethyl]-1H-imidazol-1-yl}ethyl]-1,2-oxazol-5-yl}phenyl)ethynyl]cyclobutyl}-N-methylformamide] are 32 µg/mL (≈ 73.8 µM), 4 µg/mL (≈ 9.23 µM) and 2 µg/mL (≈ 4.61 µM).
